This is an account of results in ChEMBL document CHEMBL6153028, “Understanding the synergistic sensitization of natural products and antibiotics: An effective strategy to combat MRSA” (2025).

What all share (format): functional
Experiment [1] has as its system Staphylococcus aureus. As to the kind of experiment: Synergistic antimicrobial activity against methicillin-resistant Staphylococcus aureus CCARM 3089 assessed as fractional inhibitory concentration index in presence of oxacillin incubated for 24 hrs by checkerboard assay.
Experiment [2] has as its system Staphylococcus aureus. As to the kind of experiment: Synergistic antimicrobial activity against methicillin-resistant Staphylococcus aureus CCARM 3089 assessed as fractional inhibitory concentration index in presence of Chloramphenicol incubated for 24 hrs by checkerboard assay.
In experiment [3] the test system is Staphylococcus aureus. As to the kind of experiment: Synergistic antimicrobial activity against methicillin-resistant Staphylococcus aureus assessed as fractional inhibitory concentration index in presence of fosfomycin by checkerboard assay.
In experiment [4] the test system is Staphylococcus aureus. The experiment can be described thus: Synergistic antimicrobial activity against methicillin-resistant Staphylococcus aureus assessed as fractional inhibitory concentration index in presence of chloramphenicol by checkerboard assay.
In experiment [5] the test system is Staphylococcus aureus. The experiment can be described thus: Synergistic antimicrobial activity against methicillin-resistant Staphylococcus aureus assessed as fractional inhibitory concentration index in presence of gentamicin by checkerboard assay.
Experiment [6] deals with Staphylococcus aureus. As to the kind of experiment: Synergistic antimicrobial activity against methicillin-resistant Staphylococcus aureus assessed as fractional inhibitory concentration index in presence of minocycline by checkerboard assay.
For experiment [7], the system named is Staphylococcus aureus. The experiment can be described thus: Synergistic antimicrobial activity against methicillin-resistant Staphylococcus aureus CCARM 3089 assessed as fractional inhibitory concentration index in presence of pencillin incubated for 24 hrs by checkerboard assay.
In experiment [8] the test system is Staphylococcus aureus. As to the kind of experiment: Synergistic antimicrobial activity against methicillin resistant Staphylococcus aureus 43300 assessed as fractional inhibitory concentration index incubated for 24 hrs in presence of norfloxacin by checkerboard assay.
The test system of experiment [9] is Staphylococcus aureus. As to the kind of experiment: Synergistic antimicrobial activity against methicillin resistant Staphylococcus aureus assessed as fractional inhibitory concentration index incubated for 24 hrs in presence of Norfloxacin by checkerboard assay.
The subject of experiment [10] is Staphylococcus aureus. The experiment can be described thus: Synergistic antimicrobial activity against methicillin resistant Staphylococcus aureus assessed as fractional inhibitory concentration index incubated for 24 hrs in presence of rifampicin by checkerboard assay.
Experiment [11] concerns Staphylococcus aureus. The experiment can be described thus: Synergistic antimicrobial activity against methicillin-resistant Staphylococcus aureus assessed as fractional inhibitory concentration index incubated for 24 hrs in presence of ampicillin by checkerboard assay.
Experiment [12] concerns Staphylococcus aureus. As to the kind of experiment: Synergistic antimicrobial activity against Staphylococcus aureus DSM 1104 planktonic cells assessed as fractional inhibitory concentration index in presence of gentamicin by checkerboard assay.
Experiment [13] has as its system Staphylococcus aureus. The experiment can be described thus: Synergistic antimicrobial activity against Staphylococcus aureus DSM 1104 planktonic cells assessed as fractional inhibitory concentration index in presence of oxacillin by checkerboard assay.
For experiment [14], the system named is Staphylococcus aureus. The experiment can be described thus: Synergistic antimicrobial activity against methicillin-resistant Staphylococcus aureus assessed as fractional inhibitory concentration index in presence of gentamicin incubated for 24 hrs by checkerboard assay.
Experiment [15] has as its system Staphylococcus aureus. As to the kind of experiment: Synergistic antimicrobial activity against methicillin-resistant Staphylococcus aureus assessed as fractional inhibitory concentration index in presence of minocycline incubated for 24 hrs by checkerboard assay.
Experiment [16] has as its system Staphylococcus aureus. As to the kind of experiment: Synergistic antimicrobial activity against methicillin-resistant Staphylococcus aureus assessed as fractional inhibitory concentration index in presence of teicoplanin by checkerboard assay.
The test system of experiment [17] is Staphylococcus aureus. The experiment can be described thus: Synergistic antimicrobial activity against methicillin-resistant Staphylococcus aureus CCARM 3089 assessed as fractional inhibitory concentration index in presence of Ceftiofur incubated for 24 hrs by checkerboard assay.
For experiment [18], the system named is Staphylococcus aureus. As to the kind of experiment: Synergistic antimicrobial activity against methicillin-resistant Staphylococcus aureus assessed as fractional inhibitory concentration index in presence of ciprofloxacin incubated for 24 hrs by checkerboard assay.
Experiment [19] concerns Staphylococcus aureus. The experiment can be described thus: Synergistic antimicrobial activity against methicillin-resistant Staphylococcus aureus CCARM 3089 assessed as fractional inhibitory concentration index in presence of ciprofloxacin incubated for 24 hrs by checkerboard assay.
The subject of experiment [20] is Staphylococcus aureus. As to the kind of experiment: Synergistic antimicrobial activity against methicillin resistant Staphylococcus aureus 43300 assessed as fractional inhibitory concentration index incubated for 24 hrs in presence of Gentamicin by checkerboard assay.
For experiment [21], the system named is Staphylococcus aureus. The experiment can be described thus: Synergistic antimicrobial activity against methicillin resistant Staphylococcus aureus assessed as fractional inhibitory concentration index incubated for 24 hrs in presence of ciprofloxacin by checkerboard assay.
For experiment [22], the system named is Staphylococcus aureus. The experiment can be described thus: Synergistic antimicrobial activity against methicillin resistant Staphylococcus aureus 43300 assessed as fractional inhibitory concentration index incubated for 24 hrs in presence of Cefuroxime by checkerboard assay.
Experiment [23] relates to Staphylococcus aureus. The experiment can be described thus: Synergistic antimicrobial activity against methicillin resistant Staphylococcus aureus 43300 assessed as fractional inhibitory concentration index incubated for 24 hrs in presence of cefotaxime by checkerboard assay.
Experiment [24] has as its system Staphylococcus aureus. As to the kind of experiment: Synergistic antimicrobial activity against methicillin resistant Staphylococcus aureus 43300 assessed as fractional inhibitory concentration index incubated for 24 hrs in presence of imipenem by checkerboard assay.
Experiment [25] relates to Staphylococcus aureus. The experiment can be described thus: Synergistic antimicrobial activity against methicillin-resistant Staphylococcus aureus assessed as fractional inhibitory concentration index in presence of chloramphenicol incubated for 24 hrs by checkerboard assay.
Experiment [26] relates to Staphylococcus aureus. As to the kind of experiment: Synergistic antimicrobial activity against methicillin-resistant Staphylococcus aureus assessed as fractional inhibitory concentration index in presence of vancomycin by checkerboard assay.
Experiment [27] relates to Staphylococcus aureus. The experiment can be described thus: Synergistic antimicrobial activity against methicillin-resistant Staphylococcus aureus assessed as fractional inhibitory concentration index in presence of levofloxacin by checkerboard assay.
Experiment [28] relates to Staphylococcus aureus. The experiment can be described thus: Synergistic antimicrobial activity against methicillin-resistant Staphylococcus aureus assessed as fractional inhibitory concentration index in presence of ampicillin incubated for 24 hrs by checkerboard assay.
Experiment [29] concerns Staphylococcus aureus. The experiment can be described thus: Synergistic antimicrobial activity against methicillin-resistant Staphylococcus aureus assessed as fractional inhibitory concentration index in presence of Ceftriaxone incubated for 24 hrs by checkerboard assay.
The subject of experiment [30] is Staphylococcus aureus. The experiment can be described thus: Synergistic antimicrobial activity against methicillin-resistant Staphylococcus aureus assessed as fractional inhibitory concentration index in presence of amoxicillin incubated for 24 hrs by checkerboard assay.
Experiment [31] relates to Staphylococcus aureus. The experiment can be described thus: Synergistic antimicrobial activity against methicillin-resistant Staphylococcus aureus assessed as fractional inhibitory concentration index in presence of cefixime incubated for 24 hrs by checkerboard assay.
Experiment [32] concerns Staphylococcus aureus. The experiment can be described thus: Synergistic antimicrobial activity against methicillin-resistant Staphylococcus aureus assessed as fractional inhibitory concentration index in presence of penicillin G incubated for 24 hrs by checkerboard assay.
Experiment [33] has as its system Staphylococcus aureus. The experiment can be described thus: Synergistic antimicrobial activity against methicillin resistant Staphylococcus aureus assessed as fractional inhibitory concentration index incubated for 24 hrs in presence of sulbactam by checkerboard assay.
In experiment [34] the test system is Staphylococcus aureus. The experiment can be described thus: Synergistic antimicrobial activity against methicillin resistant Staphylococcus aureus assessed as fractional inhibitory concentration index incubated for 24 hrs in presence of oxytetracycline by checkerboard assay.

For `COc1c(C)c(O)c(CC=C(C)C)c(O)c1Cc1c(O)c(C(C)=O)c(O)c(CC=C(C)C)c1OC`, the “fractional inhibitory concentration index (FICI)” value in the experiment with Staphylococcus aureus [1] was 0.008; in the experiment on Staphylococcus aureus [2] it was 0.393.
For `COc1cc(OC/C=C(\C)CCC=C(C)C)c2ccc(=O)oc2c1`, the “fractional inhibitory concentration index (FICI)” value in the experiment on Staphylococcus aureus [3], with Staphylococcus aureus [4], with Staphylococcus aureus [5] and in the experiment with Staphylococcus aureus [6] was below 0.5 throughout.
As to `Oc1cc(O)cc(Oc2c(O)cc(O)c3c2Oc2c(O)cc4oc5c(Oc6cc(O)cc(O)c6)c(O)cc(O)c5c4c2O3)c1` [PHLOROFUCOFUROECKOL A], the “fractional inhibitory concentration index (FICI)” value with Staphylococcus aureus [7] is 0.393.
Regarding `COc1cc2c(cc1O)CC[n+]1cc3c(OC)c(OC)ccc3cc1-2.[I-]`, the “fractional inhibitory concentration index (FICI)” value in the experiment with Staphylococcus aureus [8] is reported as 0.375.
In the case of `Oc1ccc([C@H]2Oc3cc(O)cc4c3[C@@H]2c2cc(O)cc3c2[C@H](c2cc(O)cc5c2[C@H]4[C@@H](c2ccc(O)cc2)O5)[C@@H](c2ccc(O)cc2)O3)cc1`, the “fractional inhibitory concentration index (FICI)” value in the experiment on Staphylococcus aureus [9], with Staphylococcus aureus [10] and with Staphylococcus aureus [11] was below 0.5 in each case.
For the molecule `O=C(/C=C/c1ccc(O)cc1)CC(=O)/C=C/c1ccc(O)cc1` [BISDEMETHOXYCURCUMIN], the figures for the “fractional inhibitory concentration index (FICI)” value with Staphylococcus aureus [12] and in the experiment on Staphylococcus aureus [13] were 0.1 and 0.51, respectively.
In the case of `COc1c2ccoc2c(OCC=C(C)C)c2oc(=O)ccc12` [PHELLOPTERIN], the figures for the “fractional inhibitory concentration index (FICI)” value with Staphylococcus aureus [14] and in the experiment with Staphylococcus aureus [15] were below 0.5 and 0.5, respectively.
With `COc1cc(OC)c2ccc(=O)oc2c1OCC=C(C)C` [ARTANIN], the “fractional inhibitory concentration index (FICI)” value with Staphylococcus aureus [16] is given as below 0.5.
For `O=c1c(O)cc([C@H]2Oc3cc(O)cc(O)c3C[C@H]2O)cc2c([C@H]3Oc4cc(O)cc(O)c4C[C@H]3O)cc(O)c(O)c12` [THEAFLAVIN], in the experiment on Staphylococcus aureus [17], the “fractional inhibitory concentration index (FICI)” value was determined as 0.187.
Turning to `Oc1cc(O)cc(/C=C/c2ccc(O)c(O)c2)c1` [PICEATANNOL], the “fractional inhibitory concentration index (FICI)” value in the experiment with Staphylococcus aureus [18] stood at 0.375.
Take `COc1cc(CNC(=O)CCCC/C=C/C(C)C)ccc1O` [CAPSAICIN]: the “fractional inhibitory concentration index (FICI)” value in the experiment with Staphylococcus aureus [19] was 0.18.
As for `O=C(/C=C/C=C/c1ccc2c(c1)OCO2)N1CCCCC1` [PIPERINE], in the experiment with Staphylococcus aureus [20], the “fractional inhibitory concentration index (FICI)” value stood at 0.5.
Take `COc1cc(/C=C/C(=O)CC(=O)/C=C/c2ccc(O)c(OC)c2)ccc1O` [CURCUMIN]: in the experiment on Staphylococcus aureus [21], the “fractional inhibitory concentration index (FICI)” value was determined as 0.25.
Regarding `O=C1C=CC(=O)c2ccccc21` [NAPHTHOQUINONE], the “fractional inhibitory concentration index (FICI)” value in the experiment with Staphylococcus aureus [22] came out at 0.06; in the experiment with Staphylococcus aureus [23], 0.062; in the experiment on Staphylococcus aureus [24], 0.5.
As to `COc1c2ccoc2c(OC)c2oc(=O)ccc12` [ISOPIMPINELLIN], the “fractional inhibitory concentration index (FICI)” value in the experiment on Staphylococcus aureus [25], with Staphylococcus aureus [26] and with Staphylococcus aureus [27] was below 0.5 throughout.
`O=c1cc(-c2ccccc2)c2cc(O)c(O)cc2o1`: the “fractional inhibitory concentration index (FICI)” value in the experiment with Staphylococcus aureus [28], with Staphylococcus aureus [29], in the experiment on Staphylococcus aureus [30], with Staphylococcus aureus [31] and in the experiment on Staphylococcus aureus [32] was below 0.5 throughout.
`O=C(O[C@@H]1Cc2c(O)cc(O)cc2O[C@@H]1c1cc(O)c(O)c(O)c1)c1cc(O)c(O)c(O)c1` [EPIGALOCATECHIN GALLATE]: the entries for the “fractional inhibitory concentration index (FICI)” value in the experiment on Staphylococcus aureus [11], in the experiment on Staphylococcus aureus [33] and in the experiment on Staphylococcus aureus [34] were 0.19, 0.19 and 0.288, respectively.
